ChEMBL document CHEMBL1649504, “Activity of SQ641, a capuramycin analog, in a murine model of tuberculosis” (2009)
≈ marks a conversion by molar mass, not a printed value.

What was measured:
Type in all cases: functional
[1] = tested on: Mycobacterium tuberculosis; experiment: Antimycobacterial activity against Mycobacterium tuberculosis
[2] = tested on: Mycobacterium tuberculosis; experiment: Antibacterial activity against Mycobacterium tuberculosis H37Rv infected in C57BL/6 mouse assessed as […] in lung at 25 mg/kg, iv administered 2 times per week measured post last dose
[3] = tested on: Mycobacterium tuberculosis; experiment: Antibacterial activity against Mycobacterium tuberculosis H37Rv infected in C57BL/6 mouse assessed as […] in lung at 5 mg/kg administered for 1 week via oral gavage measured post last dose
Mycobacterium avium = experiment: Antimycobacterial activity against Mycobacterium avium
[4] = tested on: Mycobacterium tuberculosis; experiment: Antibacterial activity against Mycobacterium tuberculosis H37Rv infected in C57BL/6 mouse assessed as […] in lung at 50 mg/kg, ip administered 5 times per week measured post last dose; conditions: route intraperitoneal
[5] = tested on: Mycobacterium tuberculosis; experiment: Antibacterial activity against Mycobacterium tuberculosis H37Rv infected in C57BL/6 mouse assessed as […] in lung at 100 mg/kg, ip administered 5 times per week measured post last dose; conditions: route intraperitoneal
[6] = tested on: Mycobacterium tuberculosis; experiment: Antibacterial activity against Mycobacterium tuberculosis H37Rv infected in C57BL/6 mouse assessed as […] in lung at 50 mg/kg, iv administered 2 times per week measured post last dose

`CCCCCCCCCC(=O)O[C@@H]1[C@H](OC)[C@@H]([C@@H](CC(N)=O)O[C@H]2OC(C(=O)N[C@H]3CCC[C@@H](C)NC3=O)=C[C@@H](O)[C@H]2O)O[C@H]1n1ccc(=O)[nH]c1=O` showed an MIC [1] of 1 µg/mL (≈ 1.33 µM), a log10cfu [2] of 6.1 and a log10cfu [3] of 5.1. The MIC (Mycobacterium avium) was 0.016 µg/mL (≈ 0.0213 µM), the log10cfu [4] was 6.7 and the log10cfu [5] was 6.15. It also gave a log10cfu [6] of 6.01.
